Where two headings read alike, the source gives them in different places.
Experiments:
[1] = background statement; cited from earlier work
[2] = Pharmacokinetic profile of trospium powder formulations administered to rats via insufflation; type: in vivo, Sprague-Dawley rats; conditions: rat, intratracheal insufflation, approx. 200 μg trospium, plasma, mean ± standard error
Procedure: Male Sprague-Dawley rats (weight 400±50 grams) were administered various powder formulations of trospium by insufflation. The rats were divided into four groups of four rats as follows: • Group A—Insufflated intratracheally with Leucine/Trospium/DPPC containing approximately 200 μg Trospium • Group B—Insufflated intratracheally with Leucine/Trospium/NaSaccharin containing approximately 200 μg Trospium • Group C—Insufflated intratracheally with Leucine/Citrate/NaSaccharin/Trospium containing approximately 200 μg Trospium • Group D—Insufflated intratracheally with Leucine/Trospium containing approximately 200 μg Trospium The formulations tested are described in Table 2.
Rats were anesthetized using inhaled Isofluorane. Drug powder was then intratracheally insufflated into each rat. All animals were allowed food and water ad libitum between blood collection time points. Blood samples were collected by a lateral tail vein after anesthesia. A syringe without an anticoagulant was used for blood collection and the whole blood was transferred to tubes containing K2 EDTA (MIRCOTAINER®; MFG# BD365974). The blood samples were processed (the tubes are inverted 15-20 times and centrifuged for 2 minutes at >14,000 g's to separate plasma). The plasma samples prepared in this manner were transferred to labeled plain tubes (MICROTAINER®; MFG# BD5962) and stored frozen at <−70° C. 250 ul of whole blood was obtained for each time point. Sample collection times were pre-insufflation, 2.5, 5.0, 7.5, 10, 15, 30, 60 and 120 minutes after insufflation.
Plasma samples were analyzed for trospium using an Ionspray LC/MS/MS (Liquid Chromatography coupled with Mass Spectrometery). Briefly, 100 ul of standard (trospium standard solutions in rat plasma), control or test samples were added to the wells of a 96-well plate. The trospium standard solutions were prepared by adding 100 ul of 1 ug/ml trospium chloride (in methanol) with rat plasma to yield a nominal concentration of 4000 pg/ml. Standard solutions in rat plasma were prepared as follows:
Controls were prepared by adding 1 ug/ml trospium chloride in methanol to rat plasma to yield concentrations of 2500 pg/ml, 800 pg/ml and 200 pg/ml of internal standard solution (2.5 ng/ml clidinium bromide in water) were added to all wells except those containing blank plasma samples. 20 ul of 50 mM ammonium acetate (pH 9.0) solution and 350 ul acetonitrile were added to all wells and the plate was shaken on an orbital shaker for 1-2 minutes. The plate was centrifuged at 2000×g for 5-7 minutes. The supernatant was removed added onto an Agilent 96-well plate and concentrated to dryness using a Speed Vacuum. The dry sample were then reconstituted with 100 ul of 50:50 methanol:water and analyzed by LC/MS/MS.
Quantitation was performed using a weighted (1/×) linear regression analysis generated from standard samples.

Compound | aqueous solubility [1] | AUC ([2]; male, Sprague-Dawley, inhaled or intranasal, 200 ug, read-out: AUC (converted)) [ng·h/mL] | Cmax ([2]; male, Sprague-Dawley, inhaled or intranasal, 200 ug, read-out: Cmax) [ng/mL] | Tmax ([2]; male, Sprague-Dawley, inhaled or intranasal, 200 ug, read-out: Tmax (converted)) [min] | AUC [2] [ng·h/mL] | Cmax [2] [ng/mL] | Tmax [2] [min] | solubility (30% ethanol with inline heating at 55° C.) | soluble in water (water at room temperature)
O=C(O[C@H]1C[C@H]2CC[C@@H](C1)[N+]21CCCC1)C(O)(c1ccccc1)c1ccccc1 [Trospium chloride, endo-3-[(hydroxydiphenyl-acetyl)oxy]spiro[8-azoniabicyclo[3.2.1]octane-8,-1′-pyrrolidinium]chloride, reference compound] | relatively high | 24.9 | 71.2 ± 6.26 | 6.31 | – | – | – | – | –
O=C(OC1C[C@H]2CC[C@@H](C1)[N+]21CCCC1)C(O)(c1ccccc1)c1ccccc1.O=C1NS(=O)(=O)c2ccccc21 (stereo partly drawn) [Trospium saccharin complex] | – | – | – | – | 18.37 ± 1.28 | 43.50 ± 5.32 | 9.38 ± 1.40 | greater than 4 mg/ml | less than 0.4 mg/ml

Reference: patent US20100272811A1 (priority 2008, published 2010)
